Results as given in patent US6566378B1, “Pesticidal compositions and pesticidal methods” (Sumitomo Chemical Company, Limited, priority 1999, dated 2003).

What was measured:
Format in all cases: in vivo
[1] = tested on: Helicoverpa armigera (cotton bollworm); assay: Test Example 2: test for controlling damage by Helicoverpa armigera on potted cabbage; conditions: spray on potted cabbage, five fourth-instar larvae, damage after 7 days
Procedure: (§1) An aqueous dilution of the emulsifiable concentrate and an aqueous dilution of an emulsifiable concentrate, obtained by mixing 10 parts of Compound B or Compound C, 40 parts of xylene, 40 parts of dimethylformamide and 10 parts of Solpol 3005X, were mixed together to make a designated concentration, to which a spreading agent (New Rinou manufactured by Nihon Nohyaku) was added to make a volume of the spreading agent 1/3000. The prepared application solution was sprayed over potted cabbage (at the fourth to fifth leaf stage) at a volume of 40ml per pot. The treated plants were air dried, and then five fourth-instar larvae of Helicoverpa armigera (cotton bollworm) were set free. After 7 days, the damage (%) of the plant was observed. Each controlling ratio (%) was calculated by the following equation based on the damage (%) of non-treated plant.
(§2) Controlling ratio (%)=100×(Damage of non-treated plant−Damage of treated plant)/ Damage of non-treated plant

[2] = tested on: Aphis gossypii (cotton aphid); assay: Test Example 4: test for controlling damage by Aphis gossypii on potted cucumber; conditions: spray on potted cucumber, two days after treatment
Procedure: (§3) Twenty parts of Compound (I) were dissolved in 70 parts of Solvesso 150 (mentioned above), and 6 parts of Toximul 3454F (mentioned above) and 4 parts of Toximul 3455F (mentioned above) were added thereto and mixed well to give an emulsifiable concentrate. An aqueous dilution of the emulsifiable concentrate and an aqueous dilution of an emulsifiable concentrate, obtained by mixing 10 parts of Compound C, 40 parts of xylene, 40 parts of dimethylformamide and 10 parts of Solpol 3005X, were mixed together to make a designated concentration, to which a spreading agent (New Rinou manufactured by Nihon Nohyaku) was added to make a volume of the spreading agent 1/5000.
(§4) About thirty Aphis gossypii (cotton aphid) in various growth stages were set free on potted cucumber (at the first leaf stage), and then the prepared application solution was sprayed over at a volume of 40ml per pot. The treated plants were air dried, covered for preventing escape of the tested aphids and invasion from the outside and set in a greenhouse (25° C.).
(§5) Corrected indices were calculated by the following equation based on prerecorded parasitic number of tested aphids on the tested plant before treatment and the parasitic number after two days from the treatment.

[3] = tested on: Helicoverpa armigera (cotton bollworm); assay: Test Example 1: test for controlling damage by Helicoverpa armigera on potted cabbage; conditions: spray on potted cabbage, two fourth-instar larvae, damage after 6 days
Procedure: as §1, with “Twenty parts of Compound (I) were dissolved in 70 parts of Solvesso 150 (solvent manufactured by Exxon Chemical), and 6 parts of Toximul 3454F (surfactant manufactured by Stepan) and 4 parts of Toximul 3455F (surfactant manufactured by Stepan) were added thereto and mixed well to give an emulsifiable concentrate. An” for “An”, “a water-soluble formulation” for “an emulsifiable concentrate, obtained by mixing 10 parts”, “A (commercial name: Mospilan water-soluble formulation produced by Kumiai Chemical Industry)” for “B or Compound C, 40 parts of xylene, 40 parts of dimethylformamide and 10 parts of Solpol 3005X,”, “two” for “five”, “6” for “7”
as §2

[4] = tested on: Aphis gossypii (cotton aphid); assay: Test Example 3: test for controlling damage by Aphis gossypii on potted cucumber; conditions: spray on potted cucumber, two days after treatment, index near zero shows high controlling effect
Procedure: as §3, with “a water-soluble formulation” for “an emulsifiable concentrate, obtained by mixing 10 parts”, “A (commercial name : Mospilan water-soluble formulation produced by Kumiai Chemical Industry)” for “C, 40 parts of xylene, 40 parts of dimethylformamide and 10 parts of Solpol 3005X,”
as §4, §5
Corrected index=100×(T2DAT/Tpre)/(C2DAT/Cpre)
T2DAT: Number of the tested aphids on the plant after two days from the treatment […]

CN/C(=N\[N+](=O)[O-])NCC1CCOC1 (centres unmarked) [Compound B, 1-[(tetrahydro-3-furanyl)methyl]-2-nitro-3-methylguanidine, reference compound]
Controlling ratio (%) ([1]; 200 ppm): 40%

CN1COCN(Cc2cnc(Cl)s2)/C1=N/[N+](=O)[O-] [Compound C, 3-(2-chlorothiazol-5-ylmethyl)-5-methyl-4-nitroiminoperhydro-1,3,5-oxadiazine, reference compound]
Controlling ratio (%) ([1]; 100 ppm): 0%
Corrected index ([2]; 0.25 ppm): 44

C/C(=N\C#N)N(C)Cc1ccc(Cl)nc1 [Compound A, (E)-N^1-[(6-chloro-3-pyridyl)methyl]-N^2-cyano-N^1-methylacetamidine, reference compound]
Controlling ratio (%) ([3]; 100 ppm): 0%
Corrected index ([4]; 0.125 ppm): 29

FC(F)(F)c1ccc(OCCCOc2c(Cl)cc(OCC=C(Cl)Cl)cc2Cl)nc1 [(I), 3,5-dichloro-1-(3,3-dichloro-2-propenyloxy)-4-[3-(5-trifluoromethylpyridin-2-yloxy)propoxy]benzene]
Controlling ratio (%) ([3]; 2.5 ppm): 25%
Controlling ratio (%) ([3]; 5.0 ppm): 50%
Controlling ratio (%) ([1]; 2.5 ppm): 20%
Controlling ratio (%) ([1]; 4 ppm): 40%
Corrected index ([4]; 0.5 ppm): 83
Corrected index ([2]; 0.5 ppm): 83
